“And” between values parts separate entries of the source, which are not always exact repeats. Identical values can stand only once. “Also recorded” adds a separate entry of the source.
Columns and labels:
Bromelain = Bromelain (Ananas comosus, UniProt P14518); parameters: method as in PMID 33177555; conditions: cited from earlier work
Papain [1] = target: T1, Papain (Carica papaya, UniProt P00784); parameters: method as in PMID 21329361; conditions: cited from earlier work
T1 construct: purchased Sigma
T1 sequence (P00784 134-345): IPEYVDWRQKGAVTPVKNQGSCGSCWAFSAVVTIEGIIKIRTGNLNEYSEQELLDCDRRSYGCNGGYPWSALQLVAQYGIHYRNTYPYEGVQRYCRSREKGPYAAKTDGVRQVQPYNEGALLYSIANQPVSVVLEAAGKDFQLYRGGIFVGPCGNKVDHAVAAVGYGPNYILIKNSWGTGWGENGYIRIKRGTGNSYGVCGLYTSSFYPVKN

PLpro [2] = conditions: noncovalent, binding to S4–S3 subsites; read-out: IC50 for inhibition of PLpro; cited from earlier work
Papain [3] = target: T1, Papain; test: Papain inactivation kinetics, two-step irreversible mechanism; assay type: biochemical; conditions: Papain 48nM, Z-FR-MCA 1.5µM, 100 mM sodium phosphate, 1 mM EDTA, pH 6.0; for KI (inactivation): read-out: Ki, Papain inactivation (Ki = k-3/k3)
Text: (§1) This is confirmed by kinetic analyses of the reaction of THIA-3 with Papain, used as a diagnostic method as previously reported. The kinetic constant values of the reaction of the ten THIA compounds with Papain, for the reaction paths shown below, are reported in Table S2.
Table S2. Values of the kinetic constants for Papain inactivation kinetics analyses by all THIA compounds obtained for a two-step irreversible mechanism (see below the reaction paths) as reported in the reference (31)
Conditions: Papain 48nM, substrate Z-FR-MCA 1.5µM. Buffer: 100 mM sodium phosphate, 1 mM EDTA, pH 6.0. The kinetic constants for the reaction are indicated in the scheme below.
Ki represents the relation: Ki = k-3/k3, which is the dissociation constant describing the binding affinity between the inhibitor and the enzyme. In contrast, the IC50 is the concentration of inhibitor required to reduce enzymatic activity to half of its uninhibited value. The IC50 is less precise than Ki and depends on measurement conditions and the mechanism of inhibition. […] It is noteworthy that kinetic constants for Papain inactivation by THIA compounds are consistent with a two-step irreversible mechanism.

Papain [4] = target: T1, Papain; test: Papain inhibition, IC50 (Z-Phe-Arg-MCA substrate, 10 min pre-incubation); assay type: biochemical; conditions: for IC50 / IC50 for inhibition of Papain: 30 °C, 10 min pre-incubation, 100 mM sodium phosphate, 1 mM EDTA, pH 6.0, Z-Phe-Arg-MCA, Papain 120 nM
Procedure: Papain and Bromelain were purchased from Sigma. Papain was previously activated at 25 °C in a degassed 100 mM sodium phosphate, 1 mM EDTA, pH 6.0 buffer containing 5 mM DTT (dithiothreitol) for 10 min, as previously described. To remove the DTT excess, a 1 mL solution of activated Papain was loaded on a 3 mL syringe with 1 mL Sephadex G25 size exclusion resin (Amersham Pharmacia, Amersham, UK). The enzyme was eluted with the same assay buffer, and its activity was monitored using Z-Phe-Arg-MCA as the substrate.
The activities of Cathepsin L and Papain were assessed using Z-Phe-Arg-MCA.

SARS-CoV-2 PLpro = SARS-CoV-2 PLpro (Severe acute respiratory syndrome coronavirus 2, UniProt P0DTD1); test: biochemical
[5] = Stability of THIA derivatives in organic solvents and buffers (LC-MS); assay type: physicochemical; conditions: for Stability of 10 mM stock solutions in DMSO stored at −20 °C: 10 mM in DMSO, freezer −20 °C, LC-MS
Procedure: We chose THIA-3 as a reference due to its simplicity in larger-scale synthesis to evaluate the stability of this class of compounds. […] In the Tris buffer, decomposition to 1,3-diphenylurea was very slow, with some decomposition only apparent after 12 h of incubation (Figure S1B). We also evaluated the stability of 10 mM stock solutions of the ten THIAs in DMSO stored in a freezer (−20 °C) by Liquid Chromatography Mass Spectrometry (LC-MS). […] DMSO is also considered a reagent, but we have not explored the decomposition of THIA compounds in DMSO further, as it falls outside the scope of this work.
Figure S1. (A) - Stability THIA-3 in DMSO with 1% H2O. (B)- Stability of THIA-3 in water,100 mM sodium phosphate, Tris buffer pH 7.4, with 1 to 40% ACN.
Figure S2. Stability of THIAs in dimethyl sulfoxide and stored at -20 °C

SARS-CoV-2 3CLpro = SARS-CoV-2 3CLpro (Severe acute respiratory syndrome coronavirus 2, UniProt P0DTD1); test: 3CLpro inhibition, IC50 (FRET substrate, 10 min pre-incubation); assay type: biochemical
Cathepsin L = target: T2, Cathepsin L (Homo sapiens, UniProt P07711); test: Type of inhibition on Cathepsin L; assay type: biochemical
T2 construct: made in house; host or cells: Pichia pastoris
T2 sequence (P07711 114-333): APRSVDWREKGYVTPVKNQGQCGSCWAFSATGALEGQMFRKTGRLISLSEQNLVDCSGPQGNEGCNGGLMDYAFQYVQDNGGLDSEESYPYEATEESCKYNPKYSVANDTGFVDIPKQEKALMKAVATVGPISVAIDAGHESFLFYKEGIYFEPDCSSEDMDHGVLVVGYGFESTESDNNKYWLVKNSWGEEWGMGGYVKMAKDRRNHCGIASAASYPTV
Procedure: (§2) Initially, we identified the type of inhibition in each protease using THIA-3 as a reference compound for all the tested THIA derivatives. […] Due to the susceptibility of the THIA derivatives to reducing agents, such as Cys or DTT (Figure S4), the proteases Papain, Cathepsin L, 3CLpro, and PLpro were separately pre-activated by 5 mM DTT during 30 min, which was removed by gel filtration, forming stock solutions of the activated proteases, and then kept at −20 °C under an N2 atmosphere for future use.

PLpro [6] = target: PLpro (Severe acute respiratory syndrome coronavirus 2, UniProt P0DTD1); test: Type of inhibition (reversibility assay) on PLpro; assay type: biochemical, SARS-CoV-2
Papain [7] = target: T1, Papain; test: Type of inhibition (time dependence, reversibility) on Papain; assay type: biochemical; conditions: reverted by reducing agents
Procedure: as §2, §1
(§3) Figure S3. […] The assay has been performed following the procedure described in Reference ACS Omega 6 (2021) 16584−16591. https://doi.org/10.1021/acsomega.1c01797.
Figure S4. Inhibition of Papain by THIA-3 and its reversibility by cysteine (Cys) as a reducing agent. Z-FR-MCA as substrate, Papain activity was assessed before and after pre-incubation with 5µM THIA-3 for 5 min, and then assayed after Cys addition (10 µM).

3CLpro = 3CLpro (Severe acute respiratory syndrome coronavirus 2, UniProt P0DTD1); test: Type of inhibition (time dependence, reversibility) on 3CLpro; assay type: biochemical, SARS-CoV-2; conditions: reverted by reducing agents
Procedure: as §2, §1, §3

[8] = IC50 for inhibition of 3CLpro, 30 °C, 10 min pre-incubation, 50 mM Tris, 1 mM EDTA, pH 7.5, Abz-[…](Dnp)-NH2, 3CLpro 27 nM
[9] = IC50 for inhibition of 3CLpro (bound), unit inferred

Bromelain, sequence (P14518 whole entry): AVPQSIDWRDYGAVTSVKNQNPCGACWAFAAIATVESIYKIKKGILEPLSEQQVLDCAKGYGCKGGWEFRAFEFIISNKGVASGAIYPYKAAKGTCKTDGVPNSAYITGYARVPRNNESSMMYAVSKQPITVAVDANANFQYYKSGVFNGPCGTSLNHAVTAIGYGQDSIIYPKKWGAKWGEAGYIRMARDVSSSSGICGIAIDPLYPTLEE

## CC(C)C[C@H](NC(=O)[C@H]1O[C@@H]1C(=O)O)C(=O)NCCCCN=C(N)N (relative stereo) [E-64, L-trans-Epoxysuccinyl-leucylamido (4-guanidino)butane]
Bromelain
  Inhibition of Bromelain: poor inhibition

## Cc1ccc(-n2sc(=O)n(Cc3ccc(F)cc3)c2=O)cc1 [CCG-50014, 4-(4-fluorobenzyl)-2-p-tolyl-1,2,4-thiadiazolidine-3,5-dione]
Papain [1]
  Inhibition of Papain: complete absence of papain inhibition; also recorded: failed to inhibit Papain

## O=c1sn(-c2ccccc2)c(=O)n1Cc1ccccc1 [THIA-1]
Papain [3]
  k3, Papain inactivation: 19.9 µM/s
  k4, Papain inactivation: 0.013 s⁻¹
  KI (inactivation): 260 nM
Papain [4]
  IC50: 2160 ± 90 nM
  IC50 for inhibition of Papain: in the μM range
SARS-CoV-2 PLpro
  IC50: 25000 ± 3000 nM
[5]
  Stability of 10 mM stock solutions in DMSO stored at −20 °C: the most resistant
SARS-CoV-2 3CLpro; [8]
  IC50: 130 ± 10 nM

## COc1ccc(-n2sc(=O)n(Cc3ccccc3)c2=O)cc1 [THIA-2]
Papain [3]
  k3, Papain inactivation: 24.6 µM/s
  k4, Papain inactivation: 0.012 s⁻¹
  KI (inactivation): 320 nM
Papain [4]
  IC50: 1280 ± 70 nM
  IC50 for inhibition of Papain: in the μM range
SARS-CoV-2 PLpro
  IC50: 8300 ± 800 nM
[5]
  Stability of 10 mM stock solutions in DMSO stored at −20 °C: the most resistant
SARS-CoV-2 3CLpro; [8]
  IC50: 120 ± 10 nM

## O=c1sn(-c2ccccc2)c(=O)n1-c1ccccc1 [THIA-3]
Cathepsin L
  Type of inhibition of Cathepsin L: irreversible inhibition
Papain [3]
  k3, Papain inactivation: 19.7 µM/s
  k4, Papain inactivation: 0.008 s⁻¹
  KI (inactivation): 170 nM
Papain [4]
  IC50: 140 ± 20 nM
SARS-CoV-2 PLpro
  IC50: 8500 ± 200 nM
PLpro [6]
  Type of inhibition of PLpro: reversible inhibition
[5]
  Stability in DMSO with 1% water: decomposed to 1,3-diphenylurea
  Stability in acetonitrile (ACN): remained stable
SARS-CoV-2 3CLpro; [8]
  IC50: 110 ± 10 nM
Papain [7]
  Type of inhibition of Papain: covalent irreversible inhibition; also recorded: two-step covalent enzyme inactivation mechanism
3CLpro
  Type of inhibition of 3CLpro: covalent irreversible inhibition; also recorded: two-step covalent enzyme inactivation mechanism

## COc1ccc(-n2sc(=O)n(-c3ccccc3)c2=O)cc1 [THIA-4]
Papain [3]
  k3, Papain inactivation: 4.9 µM/s
  k4, Papain inactivation: 0.015 s⁻¹
  KI (inactivation): 80 nM
Papain [4]
  IC50: 70 nM and 71 nM
SARS-CoV-2 PLpro
  IC50: 7600 ± 900 nM
SARS-CoV-2 3CLpro; [8]
  IC50: 130 ± 10 nM

## COc1ccc(-n2sc(=O)n(-c3ccc(C)cc3)c2=O)cc1 [THIA-5]
Papain [3]
  k3, Papain inactivation: 12.3 µM/s
  k4, Papain inactivation: 0.021 s⁻¹
  KI (inactivation): 270 nM
Papain [4]
  IC50: 102 ± 3 nM
SARS-CoV-2 PLpro
  IC50: 3900 ± 700 nM
SARS-CoV-2 3CLpro; [8]
  IC50: 90 ± 10 nM

## COc1ccc(-n2sc(=O)n(-c3ccc(OC)cc3)c2=O)cc1 [THIA-6]
Papain [3]
  k3, Papain inactivation: 14.5 µM/s
  k4, Papain inactivation: 0.019 s⁻¹
  KI (inactivation): 270 nM
Papain [4]
  IC50: 10 ± 1 nM
Papain [4]; ratio of Papain IC50 values
  Fold higher Papain inhibitory potency than THIA-4: sevenfold
  Fold increase in Papain inhibitory potency compared to THIA-8: 240 fold
SARS-CoV-2 PLpro
  IC50: 12500 ± 900 nM
SARS-CoV-2 3CLpro; [8]
  IC50: 30 ± 10 nM
SARS-CoV-2 3CLpro; unit inferred
  IC50: < 50 nM

## COc1ccc(-n2sc(=O)n(-c3ccc(Cl)cc3)c2=O)cc1 [THIA-7]
Papain [3]
  k3, Papain inactivation: 17.3 µM/s
  k4, Papain inactivation: 0.009 s⁻¹
  KI (inactivation): 160 nM
Papain [4]
  IC50: 130 ± 10 nM
  IC50 for inhibition of Papain: in the nanomolar range
SARS-CoV-2 PLpro
  IC50: 14400 ± 700 nM
[5]
  Stability of 10 mM stock solutions in DMSO stored at −20 °C: the most resistant
SARS-CoV-2 3CLpro; [9]
  IC50: < 50 nM
SARS-CoV-2 3CLpro; [8]
  IC50: 10 ± 10 nM

## COc1ccc(-n2sc(=O)n(C3CCCCC3)c2=O)cc1 [THIA-8]
Papain [3]
  k3, Papain inactivation: 109.9 µM/s
  k4, Papain inactivation: 0.016 s⁻¹
  KI (inactivation): 680 nM
Papain [4]
  IC50: 2400 ± 100 nM
  IC50 for inhibition of Papain: in the μM range
SARS-CoV-2 PLpro
  IC50: 4200 ± 100 nM
[5]
  Stability of 10 mM stock solutions in DMSO stored at −20 °C: the most resistant
SARS-CoV-2 3CLpro; [8]
  IC50: 190 ± 10 nM

## Cc1ccc(-n2sc(=O)n(-c3ccccc3)c2=O)cc1 [THIA-9]
Papain [3]
  k3, Papain inactivation: 14.5 µM/s
  k4, Papain inactivation: 0.024 s⁻¹
  KI (inactivation): 340 nM
Papain [4]
  IC50: 110 ± 10 nM
SARS-CoV-2 PLpro
  IC50: 10400 ± 400 nM
SARS-CoV-2 3CLpro; [8]
  IC50: 160 ± 80 nM

## O=c1sn(-c2ccc(F)cc2)c(=O)n1-c1ccccc1 [THIA-10]
Papain [3]
  k3, Papain inactivation: 13.7 µM/s
  k4, Papain inactivation: 0.022 s⁻¹
  KI (inactivation): 310 nM
Papain [4]
  IC50: 10 nM and 11 nM
SARS-CoV-2 PLpro
  IC50: 10000 ± 1000 nM
[5]
  Stability of 10 mM stock solutions in DMSO stored at −20 °C: the most resistant; also recorded: THIA-10 No degradation detected
SARS-CoV-2 3CLpro; [9]
  IC50: < 50 nM
SARS-CoV-2 3CLpro; [8]
  IC50: 20 ± 10 nM
Papain [7]
  Type of inhibition of Papain: two-step covalent enzyme inactivation mechanism

Source: PMC12526058, “1,2,4-Thiadiazolidin-3,5-Diones as Inhibitors of Cysteine Proteases” (Molecules, 2025)
